Several values for one entry are separate records, joined by “and”; a condition that tells them apart may be missing. Identical values can stand only once. Entries after “also recorded” stand apart in the source; their conditions may differ. Like-named read-outs stand apart in the source and are kept apart here.
What was measured:
[1] = DPPH radical scavenging capacity of food powder; type: biochemical; settings: positive control at the same concentrations as polyphenols
Procedure: The powder was dissolved in water and the antioxidant capacity of the solution was determined by estimating the DPPH Radical scavenging capacity of solution as polyphenol equivalent (estimated by Folin-Ciocalteau reagent) in micrograms. A 0.1 mM Folin-Ciocateau reagent was prepared in methanol, and the food powder solution was added in the specified amounts. The antioxidants were allowed to react with 1 ml of DPPH reagent, and the absorbance (purple, 517 nm absorption) was monitored. The decline in 517 nm absorbance was noted and expressed as % quenching in comparison to a control without polyphenol. […] Each point at a concentration represents an individual sample of food powder prepared;
The powder was dissolved in water and the antioxidant capacity of the solution was determined by estimating the DPPH Radical scavenging capacity of solution as polyphenol equivalent (estmated by Folin-Ciocalteau reagent) in micrograms. A 0.1 mM Folin-Ciocateau reagent was prepared in methanol, and the food powder solution was added in the specified amounts. The antioxidants were allowed to react with 1 ml of DPPH reagent, and the absorbance (purple, 517 nm absorption) was monitored. The decline in 517 nm absorbance was noted and expressed as % quenching in comparison to a control without polyphenol. […] Each point at a concentration represents an individual sample of food powder prepared.

[2] = system: human colorectal cancer cells (HT 29)
Procedure: (§1) Cell culture: Three cell lines derived from colon, CRL 1790, a normal cell line, HT 29, a colorectal cancer cell line and CRL 2158 a multidrug resistant colorectal cancer cell line (ATCC) were used to evaluate the cytotoxicity of nanocomplexes. Cells were cultured in media specifically recommended for each cell line. For HT 29, the medium used was DMEM (Dulbecco's modified Eagle's medium, Sigma), for CRL 2158, the medium used was RPMI, and for CRL 1790, the medium used was EMEM (Eagle's minimum essential medium; Cedarlane Labs, Burlington, ON, Canada). All the media were supplemented with FBS, Penicillin/streptomycin, and L-glutamine. At confluency (˜80%), cells were washed with 1×PBS twice. Cells were incubated with trypsin-EDTA for 5 minutes and then diluted in respective media supplemented with 10% FBS before staining with trypan blue (50 μl of cells and 450 μl of trypan blue) and counting viable cells to evaluate cytotoxicity. The cytotoxicity was determined by trypan blue exclusion by living cells and blue staining of dead cells. The number of dead cells in a unit area was counted and expressed as a percentage of total cells in the area.
(§2) Cytotoxicity of nanoparticles and nanofibres against cancer cells: These studies evaluate the cytotoxic effects of the purified nanoparticles and the nanofibres isolated from sour cherry using normal human colonic epithelial cells (CRL 1790), human colorectal cancer cells (HT 29) and multidrug resistant human colorectal cancer cells (CRL 2158) in the presence or absence of paclitaxel. Nanoparticles were added as polyphenol equivalent aliquots, while the nanofibres were added on a weight basis. […]

[3] = system: multidrug resistant human colorectal cancer cells (CRL 2158)
Procedure: as §1, §2

[4] = system: normal human colonic epithelial cells (CRL 1790)
Procedure: as §1, §2

[5] = system: Human colorectal MDR cancer Cells (CRL 2158); settings: B-Live/Dead cell analysis, paclitaxel 32 nM, 24 h, without or with nanofibre 4 μg/ml
Procedure: (§3) Live-Dead cell analysis: Cells were grown as confluent and subconfluent monolayers for 24 h as described previously (Hakimuddin et al., 2004). Cells were treated with paclitaxel, or paclitaxel along with nanofibers for 12 h (Appropriate amounts of paclitaxel and nanofibers were mixed in 5% DMSO in water, and added to the cells). Cells were washed with phosphate buffer and cell viability tests performed on CRL 1790, CRL 2158 and HT 29 cells using a live/dead cell viability kit (Invitrogen, Mississauga, Ontario) as described by the manufacturer. Live dead cells were visualized under a confocal microscope. The assay kit contains two fluorescent dyes, calcein AM ester (Ex 494 nm, Em 517 nm) which specifically enters live cells, gets de-esterified and stains the live cells green. The dying cells as well as dead cells are membrane compromised (leaky plasma membrane) and allows the entry of ethidium homodimer Ex 517 nm/Em 617), which stains the nucleus red.
(§4) Differentiating cytotoxicity by Live-Dead cell analysis: Further studies were performed to investigate delivery of paclitaxel using nanofibres into various cell lines. To further evaluate the efficiency of nanofibres in enhancing cytotoxicity of paclitaxel, live-dead cell analysis was conducted. Normal cells (CRL 1790), cancer cells (HT-29) and the MDR cells (CRL 2158) were cultured and exposed to paclitaxel alone, and paclitaxel along with nanofibres. The cells were cultured for 24 h at which time point, paclitaxel and the nanofibres were added to the culture. Live dead cell analysis was performed 24 h after exposure to the drug. […] The assay kit (Invitrogen) contains two fluorescent dyes, calcein AM ester (Ex 494 nm, Em 517 nm) which specifically enters live cells, gets de-esterified and stains the live cells green. The dying cells as well as dead cells are membrane compromised (leaky plasma membrane) and allows the entry of ethidium homodimer (Ex 517 nm/Em 617), which stains the nucleus red. […] Panels B, C represent control cells visualized at 617 nm (red, dead cells) and at 517 nm (green, live cells), respectively. Panel A is a composite image of untreated cells. Panels E, F represent the images of cells treated with paclitaxel (32 nM) recorded at the two wavelengths 617 and 517 nm respectively. Panel D is a composite image. Panels H and I show the cells treated with paclitaxel+nanofibres (32 nM+4 μg/ml nanofibers, the fibers and appropriate amount of paclitaxel were mixed in 5% DMSO and added to the culture medium of cells and allowed to incubate for 12 h). Panel G is a composite of the red and green images.

[6] = system: Normal Human Intestinal Cells (CRL 1790); settings: B-Live/Dead cell analysis; paclitaxel 32 nM, 24 h, without or with nanofibre 4 μg/ml
Procedure: as §3, §4

[7] = system: human colorectal cancer cells (HT 29); settings: B-Live/Dead cell analysis; paclitaxel 32 nM, 24 h, without or with nanofibre 4 μg/ml
Procedure: as §3, §4

HT 29 cells = assay: Uptake of calcein and calcein-loaded nanofibres, confocal microscopy; type: cell-based, human
Procedure: (§5) Calcein uptake into HT 29, CRL 1790 cells: Uptake of calcein-loaded nanoparticles into mammalian cells. Calcein by itself is impermeable through membrane, and may be taken up at a low level by endocytosis. Ethanol-bleached cherry was homogenized in water, also containing 1 mg/g fresh weight equivalent of calcein, and the supernatant dialyzed against water. Calcein complexed to nanofilaments is retained within the dialysis bag, and used for uptake measurements by confocal microscopy.
(§6) Uptake of complexed molecules by nanofibres: Nanofibres are extremely long (micrometers in length, ˜5 nm in diameter; see FIG. 37, for example), and their ability to cross the plasma membrane was investigated. In this experiment, the ability of nanofibres to form natural complexes with a membrane impermeable fluorescent dye, calcein, was investigated. Nanofibres where prepared from ethanol-bleached cherry by procedures described herein above. […] HT-29 and CRL-1790 cells were incubated in the presence of calcein alone, and calcein-complexed nanofibres (of equal fluorescence intensity). Uptake of calcein and calcein complexed with nanofibres were monitored by confocal microscopy. […] Similar experiments were also conducted with nanoparticles, however, because of quenching of fluorescence by polyphenols, successful acquisition of images was not achieved.

[8] = system: normal human intestinal CRL 1790 cells; assay: as above; type: cell-based
Procedure: as §5, §6

Cc1c(C)c2c(c(C)c1O)CCC(C)(C(=O)O)O2 (stereo not shown) [Trolox]
TEAC value [1]: 1

CC(=O)O[C@H]1C(=O)[C@@]2(C)[C@H]([C@H](OC(=O)c3ccccc3)[C@]3(O)C[C@H](OC(=O)[C@H](O)[C@@H](NC(=O)c4ccccc4)c4ccccc4)C(C)=C1C3(C)C)[C@]1(OC(C)=O)CO[C@@H]1C[C@@H]2O [Paclitaxel]
% Living cells Colorectal Cancer Cell Line HT 29 ([2]; Paclitaxel 2 nM): 70.93% | % Living cells Colorectal Cancer Cell Line HT 29 ([2]; Paclitaxel 8 nM): 59.11% | % Living cells Colorectal Cancer Cell Line HT 29 ([2]; Paclitaxel 32 nM): 50% and 48.27% | % Living cells Colorectal MDR cell line CRL 2158 ([3]; Paclitaxel 2 nM): 90.86% | % Living cells Colorectal MDR cell line CRL 2158 ([3]; Paclitaxel 8 nM): 86.17% | % Living cells Colorectal MDR cell line CRL 2158 ([3]; Paclitaxel 32 nM): 83.76% | % Living cells Normal Cell Line CRL 1790 ([4]; Paclitaxel 2 nM): 86.66% | % Living cells Normal Cell Line CRL 1790 ([4]; Paclitaxel 8 nM): 74.28% | % Living cells Normal Cell Line CRL 1790 ([4]; Paclitaxel 32 nM): 66.79% | % Living cells Colorectal MDR cell line CRL 2158 [5]: 46.00% | % Living cells Colorectal MDR cell line CRL 2158 ([5]; listed as paclitaxel): ~50% | % Living cells Normal Cell Line CRL 1790 [6]: 97.6% | % Living cells Colorectal Cancer Cell Line HT 29 [7]: 10.78%

O=C(O)CN(CC(=O)O)Cc1cc2c(cc1O)Oc1cc(O)c(CN(CC(=O)O)CC(=O)O)cc1C21OC(=O)c2ccccc21 [Calcein]
uptake into cells (in words) (HT 29 cells): comparatively very low; also recorded: Far reduced uptake | uptake into cells (in words) [8]: comparatively very low

From patent US12180612B2, “Plant tissue-derived nanofibres” (priority 2018, dated 2024)
